Data: ChEMBL document CHEMBL1136629, “Amphipathic 3-phenyl-7-propylbenzisoxazoles; human pPaR gamma, delta and alpha agonists” (Bioorg Med Chem Lett, 2003)
pEC50, pKi: −log10 of the molar value.

Legend:
[1] = molecular target: T1, Peroxisome proliferator-activated receptor delta (Homo sapiens, UniProt Q03181)
T1 sequence (Q03181 whole entry): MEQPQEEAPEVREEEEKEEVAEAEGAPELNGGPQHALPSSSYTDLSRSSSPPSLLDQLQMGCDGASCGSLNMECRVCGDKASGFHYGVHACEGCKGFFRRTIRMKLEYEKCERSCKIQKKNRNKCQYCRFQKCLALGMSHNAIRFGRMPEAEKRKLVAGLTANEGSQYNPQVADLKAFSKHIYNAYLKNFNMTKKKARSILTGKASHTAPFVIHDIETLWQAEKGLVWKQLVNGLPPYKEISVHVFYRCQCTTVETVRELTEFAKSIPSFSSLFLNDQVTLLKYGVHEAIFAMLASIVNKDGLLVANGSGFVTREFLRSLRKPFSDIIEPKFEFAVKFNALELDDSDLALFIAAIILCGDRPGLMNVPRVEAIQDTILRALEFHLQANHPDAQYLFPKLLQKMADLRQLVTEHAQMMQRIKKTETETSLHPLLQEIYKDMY
Description: In vitro binding affinity towards human peroxisome proliferator activated receptor delta (PPAR delta)

[2] = molecular target: T2, Peroxisome proliferator-activated receptor gamma (Homo sapiens, UniProt P37231); test: In vitro binding affinity towards human peroxisome proliferator activated receptor gamma (PPAR gamma)
T2 sequence (P37231 whole entry): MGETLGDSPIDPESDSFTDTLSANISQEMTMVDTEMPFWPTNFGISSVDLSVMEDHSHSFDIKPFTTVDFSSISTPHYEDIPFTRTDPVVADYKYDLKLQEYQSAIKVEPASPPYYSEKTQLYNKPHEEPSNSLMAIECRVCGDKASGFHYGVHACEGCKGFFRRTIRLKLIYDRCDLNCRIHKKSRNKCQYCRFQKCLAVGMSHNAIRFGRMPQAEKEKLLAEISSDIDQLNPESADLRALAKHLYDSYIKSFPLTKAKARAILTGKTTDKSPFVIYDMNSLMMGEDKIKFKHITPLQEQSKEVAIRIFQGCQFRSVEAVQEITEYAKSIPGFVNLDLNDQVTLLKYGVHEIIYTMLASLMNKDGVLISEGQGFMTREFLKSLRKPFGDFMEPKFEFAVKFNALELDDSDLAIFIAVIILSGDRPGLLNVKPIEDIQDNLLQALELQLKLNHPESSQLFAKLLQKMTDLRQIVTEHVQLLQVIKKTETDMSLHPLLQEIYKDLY

[3] = molecular target: T3, Peroxisome proliferator-activated receptor alpha (Homo sapiens, UniProt Q07869); test: In vitro binding affinity towards human peroxisome proliferator activated receptor alpha (PPAR alpha)
T3 sequence (Q07869 whole entry): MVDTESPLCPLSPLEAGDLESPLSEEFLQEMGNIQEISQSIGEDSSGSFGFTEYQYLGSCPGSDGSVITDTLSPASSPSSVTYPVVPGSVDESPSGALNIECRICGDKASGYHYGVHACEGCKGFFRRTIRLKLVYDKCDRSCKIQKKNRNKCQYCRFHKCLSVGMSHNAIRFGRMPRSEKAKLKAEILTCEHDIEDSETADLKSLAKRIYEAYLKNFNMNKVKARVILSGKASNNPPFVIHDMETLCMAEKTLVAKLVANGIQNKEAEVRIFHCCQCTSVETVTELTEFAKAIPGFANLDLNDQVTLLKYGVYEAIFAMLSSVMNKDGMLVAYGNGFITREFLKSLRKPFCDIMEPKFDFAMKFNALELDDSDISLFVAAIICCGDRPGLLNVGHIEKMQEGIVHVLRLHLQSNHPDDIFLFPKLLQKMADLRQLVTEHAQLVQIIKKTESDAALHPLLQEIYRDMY

[4] = molecular target: T3, Peroxisome proliferator-activated receptor alpha; test: Agonistic activity was determined in COS1 cells transfected with GAL 4-PPAR alpha receptor; type: functional, cell-based, COS-1
[5] = molecular target: T2, Peroxisome proliferator-activated receptor gamma; test: Agonistic activity was determined in COS1 cells transfected with GAL 4-PPAR gamma receptor; type: functional, cell-based, COS-1
[6] = molecular target: T4, Peroxisome proliferator-activated receptor alpha (Homo sapiens) (UniProt Q07869); test: Agonistic transcriptional activity in COS1 cells expressing GAL 4-PPAR alpha at 3 uM; Maximal percent; type: functional, cell-based; conditions: COS-1
T4 sequence (whole entry): T3 sequence (Q07869 whole entry)

[7] = molecular target: T5, Peroxisome proliferator-activated receptor gamma (Homo sapiens) (UniProt P37231); test: Agonistic transcriptional activity in COS1 cells expressing GAL 4-PPAR gamma at 3 uM; Maximal percent; type: functional, cell-based; conditions: COS-1
T5 sequence (whole entry): T2 sequence (P37231 whole entry)

[8] = molecular target: T1, Peroxisome proliferator-activated receptor delta; test: Agonistic activity was determined in COS1 cells transfected with GAL 4-PPAR delta receptor; type: functional, cell-based, COS-1
[9] = Bioavailability of compound was determined; type: ADME, organism-based; conditions: eutheria, in vivo
[10] = AUC of compound for a 2 mpk po dose of the sodium salt in rats.; type: ADME, organism-based; conditions: rat, plasma, 2 mg/kg

Row | pKi [1] | pKi [2] | pKi [3] | pEC50 [4] | pEC50 [5] | activation [6] [%] | pEC50 [8] | bioavailability [9] [%] | AUC [10] [µM·h] | SMILES | Emax (% of standard agonist) [7] [%]
1 | 7.28 | 6.94 | 6.48 |  |  |  |  |  |  | CCCc1c(OCCCCOc2cccc(CCC(=O)O)c2)ccc2c(-c3ccccc3)noc12 | 
2 | 7.43 | 8.05 | 8.12 | 6.37 | 6.31 |  |  |  |  | CCCc1c(OCCCCOc2ccc(CCC(=O)O)cc2)ccc2c(-c3ccccc3)noc12 | 
3 | 7.33 | 6.46 | 7.07 |  |  |  |  |  |  | CCCc1c(OCCCCOc2ccccc2CC(=O)O)ccc2c(-c3ccccc3)noc12 | 
4 |  |  |  |  |  | 3 |  |  |  | CN(CCOc1ccc(CC2SC(=O)NC2=O)cc1)c1ccccn1 (centres undefined) | 
5 | 7.74 | 6.82 | 7.30 |  | 6.60 | 56 | 6.83 |  |  | CCCc1c(OCCCOc2ccc(/C=C/C(=O)O)cc2)ccc2c(-c3ccccc3)noc12 | 
6 | 7.59 | 6.18 | 7.12 |  |  |  |  |  |  | CCCc1c(OCCCOc2cccc(CC(=O)O)c2)ccc2c(-c3ccccc3)noc12 | 
7 | 7.33 | 7.28 | 6.88 | 6.61 | 7.06 |  |  |  |  | CCCc1c(OCCCCOc2cccc(OCC(=O)O)c2)ccc2c(-c3ccccc3)noc12 | 
8 | 7.68 | 6.35 | 7.28 |  |  |  |  |  |  | CCCc1c(OCCCOc2cccc(CCC(=O)O)c2)ccc2c(-c3ccccc3)noc12 | 
9 | 7.21 | 6.30 | 6.31 |  |  |  |  |  |  | CCCc1c(OCCCOc2ccccc2CC(=O)O)ccc2c(-c3ccccc3)noc12 | 
10 | 6.87 | 7.70 | 7.33 | 8.70 | 7.80 |  |  |  |  | CCCc1c(OCCCCOc2ccc(OC(C)C(=O)O)cc2)ccc2c(-c3ccccc3)noc12 (centres undefined) | 
11 | 7.03 | 7.52 | 8.15 | 8.10 | 7.22 |  |  |  |  | CCCc1c(OCCCCOc2ccc(CC(=O)O)cc2)ccc2c(-c3ccccc3)noc12 | 
12 | 7.42 | 6.84 | 6.92 | 8.52 | 6.81 |  | 6.74 |  |  | CCCc1c(OCCCOc2ccc(CCCC(=O)O)cc2)ccc2c(-c3ccccc3)noc12 | 
13 | 8.30 |  | 8.52 | 8.52 | 6.71 |  | 6.83 |  |  | CCCc1c(OCCCOc2ccc(CC(=O)O)cc2)ccc2c(-c3ccccc3)noc12 | 
14 | 6.69 | 7.77 | 7.64 | 8.70 | 8.00 |  |  |  |  | CCCc1c(OCCCCOc2ccc(C(C)(C)C(=O)O)cc2)ccc2c(-c3ccccc3)noc12 | 
15 | 8.43 | 7.47 | 8.09 | 8.40 | 7.12 |  | 7.80 |  |  | CCCc1c(OCCCOc2ccc(OCC(=O)O)cc2)ccc2c(-c3ccccc3)noc12 | 
16 | 6.81 | 6.21 | 6.52 | 7.48 |  |  |  |  |  | CCCc1c(OCCOc2ccc(CCCC(=O)O)cc2)ccc2c(-c3ccccc3)noc12 | 72
17 | 9.52 | 8.51 | 8.14 | 8.30 | 8.22 |  | 7.70 | 76 | 4.2 | CCCc1c(OCCCCOc2cccc(CC(=O)O)c2)ccc2c(-c3ccccc3)noc12 | 
18 | 6.50 | 7.70 | 7.89 | 8.40 | 7.70 |  | 6.07 |  |  | CCCc1c(OCCCCOc2ccc(CC(C)(C)C(=O)O)cc2)ccc2c(-c3ccccc3)noc12 | 
19 | 6.29 | 7.00 | 8.28 | 8.10 | 6.71 |  |  |  |  | CCCc1c(OCCCCOc2cccc(C(=O)O)c2)ccc2c(-c3ccccc3)noc12 | 
20 | < 4.85 | < 5.28 | 6.04 |  |  |  |  |  |  | CCCc1c(OCCCCOc2ccc(C(=O)O)cc2)ccc2c(-c3ccccc3)noc12 | 
21 | 6.78 | 7.59 | 7.34 | 7.30 | 7.28 |  | 6.40 |  |  | CCCc1c(OCCCCOc2cccc(C(C)(C)C(=O)O)c2)ccc2c(-c3ccccc3)noc12 | 
22 | 6.58 | 7.89 | 7.74 | 7.89 | 7.54 |  | 6.19 |  |  | CCCc1c(OCCCCOc2ccc(/C=C/C(=O)O)cc2)ccc2c(-c3ccccc3)noc12 | 
23 | 5.45 | 5.88 | < 4.48 |  |  |  |  |  |  | CCCc1c(OCCCOc2ccccc2CCC(=O)O)ccc2c(-c3ccccc3)noc12 | 
24 | 6.96 | 7.39 | 6.59 | 7.04 | 7.00 |  |  |  |  | CCCc1c(OCCCCOc2cccc(OC(C)(C)C(=O)O)c2)ccc2c(-c3ccccc3)noc12 | 
25 | 6.28 | 7.28 | 6.67 | 7.28 | 7.43 |  |  |  |  | CCCc1c(OCCCCOc2ccc(C(C)(C)CC(=O)O)cc2)ccc2c(-c3ccccc3)noc12 | 

Row | SMILES | pKi [1] | pKi [2] | pKi [3] | pEC50 [4] | pEC50 [5] | activation [6] [%] | pEC50 [8] | bioavailability [9] [%] | AUC [10] [µM·h] | Emax (% of standard agonist) [7] [%]
26 | CCCc1c(OCCCOc2ccc(CCC(=O)O)cc2)ccc2c(-c3ccccc3)noc12 | 8.70 | 7.49 | 8.14 |  |  | 42 |  |  |  | 99
27 | CCCc1c(OCCCOc2ccc(OC(C)C(=O)O)cc2)ccc2c(-c3ccccc3)noc12 (centres undefined) | 8.34 | 7.66 | 8.03 | 8.70 | 7.57 |  | 7.89 |  |  | 
28 | CCCc1c(OCCCCOc2ccc(OC(C)(C)C(=O)O)cc2)ccc2c(-c3ccccc3)noc12 | 7.64 | 8.62 |  |  | 8.70 |  | 6.76 |  |  | 
29 | CCCc1c(OCCOc2ccc(CCC(=O)O)cc2)ccc2c(-c3ccccc3)noc12 | 7.96 | 6.52 |  |  |  |  |  |  |  | 
30 | CCCc1c(OCCCSc2ccc(CC(=O)O)cc2Cl)ccc2c(-c3ccccc3)noc12 | 8.43 | 7.96 | 7.85 | 8.52 | 8.40 |  | 8.52 |  |  | 
